Assay results published in ChEMBL document CHEMBL1629580, “Sec- and Tat-dependent translocation of beta-lactamases across the Escherichia coli inner membrane” (2009).
≈ marks a conversion by molar mass, not a printed value.

Assays:
Escherichia coli [1] = experiment: Antimicrobial activity against Escherichia coli CU164A harboring beta-lactamase AmpC by liquid microdilution method
Escherichia coli [2] = experiment: Antimicrobial activity against mreB-deficient Escherichia coli YLS-3 harboring beta-lactamase CTX-M-14 by liquid microdilution method; assay type: functional
Escherichia coli [3] = experiment: Antimicrobial activity against Escherichia coli CU164A harboring beta-lactamase CTX-M-14 by liquid microdilution method; assay type: functional
Escherichia coli [4] = experiment: Antimicrobial activity against translocase tatC-deficient Escherichia coli B1LK0A expressing beta-lactamase TEM-1 by liquid microdilution method; assay type: functional
Escherichia coli [5] = experiment: Antimicrobial activity against mreB-deficient Escherichia coli YLS-3 harboring empty plasmid by liquid microdilution method; assay type: functional
Escherichia coli [6] = experiment: Antimicrobial activity against Escherichia coli CU164A harboring empty plasmid by liquid microdilution method; assay type: functional
Escherichia coli [7] = experiment: Antimicrobial activity against mreB-deficient Escherichia coli YLS-3 harboring beta-lactamase AmpC by liquid microdilution method
Escherichia coli [8] = experiment: Antimicrobial activity against mreB-deficient Escherichia coli YLS-3 expressing beta-lactamase TEM-1 by liquid microdilution method; assay type: functional
Escherichia coli [9] = experiment: Antimicrobial activity against translocase tatC-deficient Escherichia coli B1LK0A harboring beta-lactamase L2 by liquid microdilution method; assay type: functional
Escherichia coli [10] = experiment: Antimicrobial activity against translocase tatC-deficient Escherichia coli B1LK0A harboring empty plasmid by liquid microdilution method; assay type: functional
Escherichia coli [11] = experiment: Antimicrobial activity against translocase tatC-deficient Escherichia coli B1LK0A harboring beta-lactamase CTX-M-14 by liquid microdilution method; assay type: functional
Escherichia coli [12] = experiment: Antimicrobial activity against Escherichia coli CU164A harboring beta-lactamase L1 by liquid microdilution method; assay type: functional
Escherichia coli [13] = experiment: Antimicrobial activity against Escherichia coli CU164A harboring beta-lactamase L2 by liquid microdilution method
Escherichia coli [14] = experiment: Antimicrobial activity against Escherichia coli MC4100A harboring empty plasmid by liquid microdilution method; assay type: functional
Escherichia coli [15] = experiment: Antimicrobial activity against Escherichia coli MC4100A harboring beta-lactamase L2 by liquid microdilution method
Escherichia coli [16] = experiment: Antimicrobial activity against mreB-deficient Escherichia coli YLS-3 harboring beta-lactamase L1 by liquid microdilution method
Escherichia coli [17] = experiment: Antimicrobial activity against Escherichia coli MC4100A harboring beta-lactamase AmpC by liquid microdilution method; assay type: functional
Escherichia coli [18] = experiment: Antimicrobial activity against Escherichia coli MC4100A harboring beta-lactamase L1 by liquid microdilution method; assay type: functional
Escherichia coli [19] = experiment: Antimicrobial activity against Escherichia coli CU164A expressing beta-lactamase TEM-1 by liquid microdilution method; assay type: functional
Escherichia coli [20] = experiment: Antimicrobial activity against Escherichia coli MC4100A expressing beta-lactamase TEM-1 by liquid microdilution method; assay type: functional
Escherichia coli [21] = experiment: Antimicrobial activity against translocase tatC-deficient Escherichia coli B1LK0A harboring beta-lactamase L1 by liquid microdilution method; assay type: functional
Escherichia coli [22] = experiment: Antimicrobial activity against mreB-deficient Escherichia coli YLS-3 harboring beta-lactamase L2 by liquid microdilution method; assay type: functional
Escherichia coli [23] = experiment: Antimicrobial activity against Escherichia coli MC4100A harboring beta-lactamase CTX-M-14 by liquid microdilution method; assay type: functional
Escherichia coli [24] = experiment: Antimicrobial activity against translocase tatC-deficient Escherichia coli B1LK0A harboring beta-lactamase AmpC by liquid microdilution method

| Compound | MIC (Escherichia coli [1]) | MIC (Escherichia coli [2]) | MIC (Escherichia coli [3]) | MIC (Escherichia coli [4]) | MIC (Escherichia coli [5]) | MIC (Escherichia coli [7]) | MIC (Escherichia coli [8]) | MIC (Escherichia coli [11]) | MIC (Escherichia coli [12]) | MIC (Escherichia coli [13]) | MIC (Escherichia coli [15]) | MIC (Escherichia coli [16]) | MIC (Escherichia coli [17]) | MIC (Escherichia coli [18]) | MIC (Escherichia coli [19]) | MIC (Escherichia coli [20]) | MIC (Escherichia coli [21]) | MIC (Escherichia coli [22]) | MIC (Escherichia coli [23]) | MIC (Escherichia coli [24]) | further results |
| --- | --- | --- | --- | --- | --- | --- | --- | --- | --- | --- | --- | --- | --- | --- | --- | --- | --- | --- | --- | --- | --- |
| CC(C)(O/N=C(\C(=O)N[C@@H]1C(=O)N2C(C(=O)[O-])=C(C[n+]3ccccc3)CS[C@H]12)c1csc(N)n1)C(=O)O [CEFTAZIDIME] | 0.25 µg/mL (≈ 0.457 µM) | 0.5 µg/mL (≈ 0.915 µM) | 1 µg/mL (≈ 1.83 µM) | ≤ 0.06 µg/mL | ≤ 0.06 µg/mL | 0.06 µg/mL (≈ 0.11 µM) | ≤ 0.06 µg/mL | 1 µg/mL (≈ 1.83 µM) | 8 µg/mL (≈ 14.6 µM) | 4 µg/mL (≈ 7.32 µM) | 4 µg/mL (≈ 7.32 µM) | 0.06 µg/mL (≈ 0.11 µM) | 0.25 µg/mL (≈ 0.457 µM) | 8 µg/mL (≈ 14.6 µM) | ≤ 0.06 µg/mL | ≤ 0.06 µg/mL | 8 µg/mL (≈ 14.6 µM) | 0.06 µg/mL (≈ 0.11 µM) | 1 µg/mL (≈ 1.83 µM) | 0.25 µg/mL (≈ 0.457 µM) | MIC (Escherichia coli [6]): ≤ 0.06 µg/mL; MIC (Escherichia coli [9]): ≤ 0.06 µg/mL; MIC (Escherichia coli [10]): ≤ 0.06 µg/mL; MIC (Escherichia coli [14]): ≤ 0.06 µg/mL |
| CC1(C)S[C@@H]2[C@H](NC(=O)[C@H](N)c3ccc(O)cc3)C(=O)N2[C@H]1C(=O)O [AMOXICILLIN] | 512 µg/mL (≈ 1400 µM) | 1020 µg/mL (≈ 2800 µM) | 2050 µg/mL (≈ 5600 µM) | 512 µg/mL (≈ 1400 µM) | 4 µg/mL (≈ 10.9 µM) | 128 µg/mL (≈ 350 µM) | 256 µg/mL (≈ 701 µM) | 2050 µg/mL (≈ 5600 µM) | 512 µg/mL (≈ 1400 µM) | 512 µg/mL (≈ 1400 µM) | 64 µg/mL (≈ 175 µM) | 512 µg/mL (≈ 1400 µM) | 512 µg/mL (≈ 1400 µM) | 1020 µg/mL (≈ 2800 µM) | 1020 µg/mL (≈ 2800 µM) | 1020 µg/mL (≈ 2800 µM) | 512 µg/mL (≈ 1400 µM) | 256 µg/mL (≈ 701 µM) | 2050 µg/mL (≈ 5600 µM) | 512 µg/mL (≈ 1400 µM) | MIC (Escherichia coli [6]): 4 µg/mL (≈ 10.9 µM); MIC (Escherichia coli [9]): 4 µg/mL (≈ 10.9 µM); MIC (Escherichia coli [10]): 4 µg/mL (≈ 10.9 µM); MIC (Escherichia coli [14]): 4 µg/mL (≈ 10.9 µM) |
| CCN1CCN(C(=O)N[C@@H](C(=O)N[C@@H]2C(=O)N3[C@@H]2SC(C)(C)[C@@H]3C(=O)O)c2ccccc2)C(=O)C1=O [PIPERACILLIN] | 32 µg/mL (≈ 61.8 µM) | 128 µg/mL (≈ 247 µM) | 512 µg/mL (≈ 989 µM) | 128 µg/mL (≈ 247 µM) | ≤ 2 µg/mL | 16 µg/mL (≈ 30.9 µM) | 32 µg/mL (≈ 61.8 µM) | 512 µg/mL (≈ 989 µM) | 32 µg/mL (≈ 61.8 µM) | 128 µg/mL (≈ 247 µM) | 128 µg/mL (≈ 247 µM) | 32 µg/mL (≈ 61.8 µM) | 32 µg/mL (≈ 61.8 µM) | 64 µg/mL (≈ 124 µM) | 256 µg/mL (≈ 495 µM) | 512 µg/mL (≈ 989 µM) | 32 µg/mL (≈ 61.8 µM) | 32 µg/mL (≈ 61.8 µM) | 512 µg/mL (≈ 989 µM) | 32 µg/mL (≈ 61.8 µM) | MIC (Escherichia coli [6]): 2 µg/mL (≈ 3.86 µM); MIC (Escherichia coli [9]): ≤ 2 µg/mL; MIC (Escherichia coli [10]): ≤ 2 µg/mL; MIC (Escherichia coli [14]): 2 µg/mL (≈ 3.86 µM) |
| CC(=O)OCC1=C(C(=O)O)N2C(=O)[C@@H](NC(=O)Cc3cccs3)[C@H]2SC1 [CEPHALOTHIN] | 512 µg/mL (≈ 1290 µM) | 128 µg/mL (≈ 323 µM) | 1020 µg/mL (≈ 2580 µM) | 16 µg/mL (≈ 40.4 µM) | ≤ 2 µg/mL | 256 µg/mL (≈ 646 µM) | 8 µg/mL (≈ 20.2 µM) | 512 µg/mL (≈ 1290 µM) | 128 µg/mL (≈ 323 µM) | 256 µg/mL (≈ 646 µM) | 256 µg/mL (≈ 646 µM) | 32 µg/mL (≈ 80.7 µM) | 1020 µg/mL (≈ 2580 µM) | 128 µg/mL (≈ 323 µM) | 32 µg/mL (≈ 80.7 µM) | 32 µg/mL (≈ 80.7 µM) | 128 µg/mL (≈ 323 µM) | 64 µg/mL (≈ 161 µM) | 1020 µg/mL (≈ 2580 µM) | 256 µg/mL (≈ 646 µM) | MIC (Escherichia coli [6]): 4 µg/mL (≈ 10.1 µM); MIC (Escherichia coli [9]): ≤ 2 µg/mL; MIC (Escherichia coli [10]): ≤ 2 µg/mL; MIC (Escherichia coli [14]): 4 µg/mL (≈ 10.1 µM) |
| CO/N=C(\C(=O)N[C@@H]1C(=O)N2C(C(=O)O)=C(COC(C)=O)CS[C@H]12)c1csc(N)n1 [CEFOTAXIME] | 0.5 µg/mL (≈ 1.1 µM) | 4 µg/mL (≈ 8.78 µM) | 16 µg/mL (≈ 35.1 µM) | ≤ 0.06 µg/mL |  | 0.12 µg/mL (≈ 0.263 µM) | ≤ 0.06 µg/mL | 16 µg/mL (≈ 35.1 µM) | 1 µg/mL (≈ 2.2 µM) | 2 µg/mL (≈ 4.39 µM) | 2 µg/mL (≈ 4.39 µM) | 0.06 µg/mL (≈ 0.132 µM) | 0.5 µg/mL (≈ 1.1 µM) | 1 µg/mL (≈ 2.2 µM) | ≤ 0.06 µg/mL | ≤ 0.06 µg/mL | 1 µg/mL (≈ 2.2 µM) | 0.06 µg/mL (≈ 0.132 µM) | 16 µg/mL (≈ 35.1 µM) | 0.5 µg/mL (≈ 1.1 µM) |  |
